What follows are substances tested against T1, lipase enzyme (Thermomyces lanuginosus, UniProt O59952, N255R/T253R) (assay: Washing test: total hydrolysis of rapeseed oil on a polyester swatch by lipase-containing washing liquor, free oleic acid quantified by HPLC). Settings: about 100 ppm by weight surfactant; lipase concentrate about 0.2 g/l; pH about 9.6; about 50° C.; water hardness 2 fH.
T1 construct: purchased Novozymes LIPEX 100 L
Format: biochemical
Protocol: The total hydrolysis of rapeseed oil in a wash process was tested with washing liquors that were always comprising the same concentration of a lipase enzyme concentrate. A blank test was performed without any added surfactant. This blank test served as the reference with which could be compared the other results obtained with the same washing liquor samples into which one of a number of different non-ionic surfactants were added.
In the experiments, the lipase concentrate was always present in a concentration of about 0.2 gram of the concentrate per litre of total liquor.
The washing tests were performed at a temperature of about 50° C. The water in the formulations was demineralised water obtained by reverse osmosis (RO).
Different washing liquors were prepared containing about 100 ppm by weight of a selected surfactant, to be compared with a blank liquor containing only the lipase enzyme concentrate and no surfactants.
For each liquor was tested the appearance of free oleic acid generated from the hydrolysis of a standard amount of rapeseed oil with which the liquor was brought in contact. Monitored by High Performance Liquid Chromatography (HPLC) was the quantitative release of free oleic acid (C18:1 fatty acid) in the washing liquor and/or present on the textile, as explained as part of the protocols below. Because oleic acid is the main fatty acid in the triglycerides of rapeseed oil, the generation of this acid as free fatty acid it is an excellent quantitative marker for the hydrolysis of rapeseed oil, in this context thus also for the activity of the lipase enzyme.
A series of tests were performed using water having a hardness of 2 fH. […] For each surfactant choice 2 duplicate samples were tested, except for Sample J (3 duplicates) and Sample K (only 1 sample tested). […] Also shown for each bar with a surfactant is an error bar showing the difference between the lowest and the highest of the duplicates.
The washing tests consisted of contacting at 50° C. a washing liquor containing the selected surfactant together with 0.2 grams per litre of the lipase enzyme concentrate and having a pH of 9.6 with a polyester swatch type W30-A (PES W30-A textile swatch obtained from the company Center For Testmaterials BV (NL)) that has been pre-treated with an amount of rapeseed oil such that the textile swatch contained about 1.5 grams of rapeseed oil on a total weight of slightly over 8 grams of pre-treated swatch.
The pre-treatment consisting of distributing a generous amount of rapeseed oil over the swatch by means of a paint roller. After applying the rapeseed oil onto the swatch, the impregnated swatch was left to dry for 48 hours between two layers of textile for assuring saturation and for absorbing the excess, after which the swatch was weighed on an analytical balance. The difference with the weight of the swatch before applying the rapeseed oil provides the amount of rapeseed oil that was present on the swatch.
In a 600 ml beaker is introduced 500 grams of the stock solution that was prepared in step 2, and this is brought up to a temperature of […] under stirring by means of a mixer submerged close to the bottom of the beaker at about 200 rpm. To this stock solution is then added 100 microliter (“μl”) of the concentrate of the lipase enzyme. Into this warm solution is then introduced the textile (i.e. the pre-treated PES swatch) to be tested, and the time counting of 10 minutes is started. Where a surfactant should be included, 50 milligram thereof is added into the beaker prior to introducing the lipase enzyme and of the textile.
After the 10 minutes contacting time provided in part 1, about 30 grams of the wash water (or wash liquor) is introduced into the 250 ml beaker containing the buffer solution and the formic acid. The formic acid serves to inactivate the lipase enzyme, so that the reaction is stopped. The total weight of the beaker content is noted and should be ±35 grams.
The dried textile is first weighed. […]

T1 sequence (O59952 23-291 T253R/N255R): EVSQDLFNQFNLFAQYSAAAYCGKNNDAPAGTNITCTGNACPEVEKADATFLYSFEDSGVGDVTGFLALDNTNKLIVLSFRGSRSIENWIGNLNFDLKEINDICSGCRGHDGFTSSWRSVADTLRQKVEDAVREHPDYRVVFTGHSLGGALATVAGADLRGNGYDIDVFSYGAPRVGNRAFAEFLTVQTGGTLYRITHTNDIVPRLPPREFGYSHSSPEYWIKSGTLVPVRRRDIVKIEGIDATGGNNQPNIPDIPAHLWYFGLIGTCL

| Substance | effect of the surfactant on lipase activity in the washing liquor (in words, FIG. 1) |
| --- | --- |
| 5EO-C13-C15 [M] | relatively benign |
| 5EO-isoC13 | not better than the conventional LES surfactant |
| 7EO-C13-15 [N] | much larger depressing effect |
| 7EO-isoC13 [F] | not better than the conventional LES surfactant |
| 9EO-isoC13 [G] | not better than the conventional LES surfactant |
| 10EO-isoC13 [H] | not better than the conventional LES surfactant |
| C8-C10 APG-DP of 1.7 [Sample K] | much lower depressing effect |
| C8-C10 alkyl polyglucoside (APG) with an average degree of polymerisation (DP) of 1.5 | much lower depressing effect |
| C8-C16 APG-DP of 1.5 [Sample J] | much lower depressing effect |
| C9-C11 fatty alcohol alkoxylated with an average ethoxylation degree of about 6 and an average propoxylation degree of about 4 [Sample O] | worse than the LES reference |
| C12-C14 amine oxide [P] | significant boost |
| a mixture of linear C13-C15 alcohol that has been ethoxylated to an average degree of about 3 | relatively benign |
| isotridecyl alcohol ethoxylated to an average degree of ethoxylation of about 3 | not better than the conventional LES surfactant |

Same assay, conditions: about 100 ppm by weight surfactant; lipase concentrate about 0.2 g/l; pH about 9.6; about 50° C.; water hardness 2 fH; 10 minute washing test

| Substance | relative lipase activity relative to the blank liquor (A) set at 100% |
| --- | --- |
| Linear Alkyl Benzene Sulphonate [Sample B] | 12% |

What follows are substances tested against T1, lipase enzyme in the same assay as above. Settings: Example 5, surfactant concentration series.
Format: biochemical

| Substance | surfactant concentration at which the suppressing activity already becomes noticeable | surfactant concentration until which the suppressing effect further grows (about the same up to 250 ppm by weight) |
| --- | --- | --- |
| 5EO-isoC13 | 10 ppm by weight | about 100 ppm by weight |
